Source: paper PMC8849385, “ATP-responsive biomolecular condensates tune bacterial kinase signaling” (Science Advances, 2022)

How the values were obtained:
[1] = target: T1, SpmX (ΔTM) (Caulobacter vibrioides, UniProt A0A0H3C9Y4); experiment: fluorescence microscopy of condensate dissolution; conditions: 5 μM protein, 5% Cy3 labelled; 5 mM MgCl2, 100 mM KCl, pH 7.4, 1 hour; solute effect on phase separation, no binding constant
T1 construct: cytoplasmic portion, AA 1 to 355 of 431, C-terminal TEV-His10 cleaved; E. coli BL21(DE3)
T1 sequence (A0A0H3C9Y4 entry or part of it, stated change not applied): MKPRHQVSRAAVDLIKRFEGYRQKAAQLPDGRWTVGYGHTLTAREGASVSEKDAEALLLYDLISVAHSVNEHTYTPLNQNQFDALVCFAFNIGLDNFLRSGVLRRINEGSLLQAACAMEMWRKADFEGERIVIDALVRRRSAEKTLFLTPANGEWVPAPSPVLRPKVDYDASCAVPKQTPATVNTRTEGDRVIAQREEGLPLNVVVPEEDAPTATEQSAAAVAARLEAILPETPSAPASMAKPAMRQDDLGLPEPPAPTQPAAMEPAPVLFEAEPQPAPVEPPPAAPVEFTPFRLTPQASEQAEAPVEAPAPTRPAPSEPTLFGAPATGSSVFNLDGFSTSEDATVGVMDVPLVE

[2] = target: T2, PopZ (Caulobacter vibrioides, UniProt A0A0H3C7Y4); experiment: fluorescence microscopy of condensate dissolution; conditions: 5 μM protein, 1% Atto488 labelled; 5 mM MgCl2, 100 mM KCl, pH 7.4, 1 hour; solute effect on phase separation, no binding constant
T2 construct: full length, AA 1 to 177, C-terminal TEV-His6 cleaved; E. coli BL21(DE3)
T2 sequence (A0A0H3C7Y4 entry or part of it): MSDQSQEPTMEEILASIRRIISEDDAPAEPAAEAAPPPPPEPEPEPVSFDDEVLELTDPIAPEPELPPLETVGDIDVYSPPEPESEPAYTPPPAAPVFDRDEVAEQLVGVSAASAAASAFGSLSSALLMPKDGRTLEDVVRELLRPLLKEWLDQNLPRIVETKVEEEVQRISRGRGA

SMILES: Nc1ncnc2c1ncn2[C@@H]1O[C@H](COP(=O)(O)OP(=O)(O)OP(=O)(O)O)[C@@H](O)[C@H]1O [ATP]
- dissolution concentration of condensates [1]: 2 mM
- dissolution concentration of condensates [2]: 1 mM
